Source: the kinase profiling compilation of Christmann-Franck et al. (2016)
Each block holds one molecule with its values, some of them ahead of it.

Assays:
Assay in all cases: radiometric filter-binding kinase assay
DAPK1 (human) = DAPK1 (human) (UniProt P53355)
MAP3K9 (human) = MAP3K9 (human) (UniProt P80192)
GSK3B (human) = GSK3B (human) (UniProt P49841)
BRSK2 (human) = BRSK2 (human) (UniProt Q8IWQ3)
ROCK2 (rat) = conditions: accession and sequence are those of the human protein
CSK (human) = CSK (human) (UniProt P41240)
MAP3K1 (human) = MAP3K1 (human) (UniProt Q13233)
HIPK3 (human) = HIPK3 (human) (UniProt Q9H422)
HIPK2 (human) = HIPK2 (human) (UniProt Q9H2X6)
LCK (mouse) = conditions: accession and sequence are those of the human protein
EPHB1 (human) = EPHB1 (human) (UniProt P54762)
PLK1 (human) = PLK1 (human) (UniProt P53350)
MAP3K5 (human) = MAP3K5 (human) (UniProt Q99683)
PRKAA1 or PRKAA2 (rat) = conditions: accession and sequence are those of the human protein
SRC (human) = SRC (human) (UniProt P12931)
MAP3K7 TAB1 (human) = MAP3K7 TAB1 (human) (UniProt Q15750+O43318)
EPHA4 (human) = EPHA4 (human) (UniProt P54764)
HIPK1 (human) = HIPK1 (human) (UniProt Q86Z02)
YES1 (human) = YES1 (human) (UniProt P07947)
MAPK13 (human) = MAPK13 (human) (UniProt O15264)
CLK2 (human) = CLK2 (human) (UniProt P49760)
PRKCZ (human) = PRKCZ (human) (UniProt Q05513)
SYK (human) = SYK (human) (UniProt P43405)
MARK4 (human) = MARK4 (human) (UniProt Q96L34)
MAPK1 (human) = MAPK1 (human) (UniProt P28482)
INSR (human) = INSR (human) (UniProt P06213)
[1] = test system: AKT2 (human), P31751 [S474D]
EPHB3 (human) = EPHB3 (human) (UniProt P54753)
PKN2 (human) = PKN2 (human) (UniProt Q16513)
RPS6KA5 KD1 KD2 (human) = RPS6KA5 KD1 KD2 (human) (UniProt O75582)
IGF1R (human) = IGF1R (human) (UniProt P08069)
MAPK11 (human) = MAPK11 (human) (UniProt Q15759)
CAMKK2 (human) = CAMKK2 (human) (UniProt Q96RR4)
PAK7 (human) = PAK7 (human) (UniProt Q9P286)
EPHB4 (human) = EPHB4 (human) (UniProt P54760)
PAK6 (human) = PAK6 (human) (UniProt Q9NQU5)

Sequence of EPHA4 (human) (P54764 whole entry, looked up): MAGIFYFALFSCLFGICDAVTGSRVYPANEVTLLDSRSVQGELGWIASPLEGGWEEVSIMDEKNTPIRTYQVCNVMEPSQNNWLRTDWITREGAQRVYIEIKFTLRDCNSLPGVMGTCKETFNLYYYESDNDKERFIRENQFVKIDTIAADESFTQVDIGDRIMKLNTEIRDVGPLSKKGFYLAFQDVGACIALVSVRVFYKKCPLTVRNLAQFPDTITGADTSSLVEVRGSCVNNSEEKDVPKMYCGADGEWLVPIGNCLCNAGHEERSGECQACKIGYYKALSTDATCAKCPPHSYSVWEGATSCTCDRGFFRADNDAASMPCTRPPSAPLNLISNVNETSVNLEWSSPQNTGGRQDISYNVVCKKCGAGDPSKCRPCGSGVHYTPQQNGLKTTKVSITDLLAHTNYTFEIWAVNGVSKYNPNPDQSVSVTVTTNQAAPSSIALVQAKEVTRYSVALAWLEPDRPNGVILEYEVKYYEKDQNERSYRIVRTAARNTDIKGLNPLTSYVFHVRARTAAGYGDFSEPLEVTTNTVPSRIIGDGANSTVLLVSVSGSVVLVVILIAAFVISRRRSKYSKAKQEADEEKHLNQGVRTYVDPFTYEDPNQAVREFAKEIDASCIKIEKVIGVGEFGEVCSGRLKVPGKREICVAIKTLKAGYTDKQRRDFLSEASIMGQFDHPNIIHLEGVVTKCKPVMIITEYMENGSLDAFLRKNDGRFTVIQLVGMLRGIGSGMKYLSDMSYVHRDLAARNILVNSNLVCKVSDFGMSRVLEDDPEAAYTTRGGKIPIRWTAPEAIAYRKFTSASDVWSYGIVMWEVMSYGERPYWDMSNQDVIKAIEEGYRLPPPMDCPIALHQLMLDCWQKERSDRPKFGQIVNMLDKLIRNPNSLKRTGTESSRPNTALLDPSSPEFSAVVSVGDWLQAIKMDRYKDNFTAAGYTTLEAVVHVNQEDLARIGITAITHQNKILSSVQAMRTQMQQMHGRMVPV
Sequence of YES1 (human) (P07947 whole entry, looked up): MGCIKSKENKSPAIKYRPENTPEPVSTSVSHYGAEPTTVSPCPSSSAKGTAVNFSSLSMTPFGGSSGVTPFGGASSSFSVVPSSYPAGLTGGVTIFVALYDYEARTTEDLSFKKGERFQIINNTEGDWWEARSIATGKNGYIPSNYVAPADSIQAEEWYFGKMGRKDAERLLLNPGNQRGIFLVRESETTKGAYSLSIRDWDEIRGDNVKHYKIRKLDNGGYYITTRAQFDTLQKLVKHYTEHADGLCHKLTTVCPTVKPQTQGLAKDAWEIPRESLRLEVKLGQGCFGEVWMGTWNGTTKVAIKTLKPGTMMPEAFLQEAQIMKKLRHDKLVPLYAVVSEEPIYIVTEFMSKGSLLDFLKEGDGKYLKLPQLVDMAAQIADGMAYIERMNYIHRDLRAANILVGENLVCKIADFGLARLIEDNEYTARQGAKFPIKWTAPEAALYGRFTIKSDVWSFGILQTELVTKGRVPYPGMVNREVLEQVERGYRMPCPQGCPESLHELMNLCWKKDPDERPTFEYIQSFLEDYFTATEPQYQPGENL
Sequence of HIPK1 (human) (Q86Z02 whole entry, looked up): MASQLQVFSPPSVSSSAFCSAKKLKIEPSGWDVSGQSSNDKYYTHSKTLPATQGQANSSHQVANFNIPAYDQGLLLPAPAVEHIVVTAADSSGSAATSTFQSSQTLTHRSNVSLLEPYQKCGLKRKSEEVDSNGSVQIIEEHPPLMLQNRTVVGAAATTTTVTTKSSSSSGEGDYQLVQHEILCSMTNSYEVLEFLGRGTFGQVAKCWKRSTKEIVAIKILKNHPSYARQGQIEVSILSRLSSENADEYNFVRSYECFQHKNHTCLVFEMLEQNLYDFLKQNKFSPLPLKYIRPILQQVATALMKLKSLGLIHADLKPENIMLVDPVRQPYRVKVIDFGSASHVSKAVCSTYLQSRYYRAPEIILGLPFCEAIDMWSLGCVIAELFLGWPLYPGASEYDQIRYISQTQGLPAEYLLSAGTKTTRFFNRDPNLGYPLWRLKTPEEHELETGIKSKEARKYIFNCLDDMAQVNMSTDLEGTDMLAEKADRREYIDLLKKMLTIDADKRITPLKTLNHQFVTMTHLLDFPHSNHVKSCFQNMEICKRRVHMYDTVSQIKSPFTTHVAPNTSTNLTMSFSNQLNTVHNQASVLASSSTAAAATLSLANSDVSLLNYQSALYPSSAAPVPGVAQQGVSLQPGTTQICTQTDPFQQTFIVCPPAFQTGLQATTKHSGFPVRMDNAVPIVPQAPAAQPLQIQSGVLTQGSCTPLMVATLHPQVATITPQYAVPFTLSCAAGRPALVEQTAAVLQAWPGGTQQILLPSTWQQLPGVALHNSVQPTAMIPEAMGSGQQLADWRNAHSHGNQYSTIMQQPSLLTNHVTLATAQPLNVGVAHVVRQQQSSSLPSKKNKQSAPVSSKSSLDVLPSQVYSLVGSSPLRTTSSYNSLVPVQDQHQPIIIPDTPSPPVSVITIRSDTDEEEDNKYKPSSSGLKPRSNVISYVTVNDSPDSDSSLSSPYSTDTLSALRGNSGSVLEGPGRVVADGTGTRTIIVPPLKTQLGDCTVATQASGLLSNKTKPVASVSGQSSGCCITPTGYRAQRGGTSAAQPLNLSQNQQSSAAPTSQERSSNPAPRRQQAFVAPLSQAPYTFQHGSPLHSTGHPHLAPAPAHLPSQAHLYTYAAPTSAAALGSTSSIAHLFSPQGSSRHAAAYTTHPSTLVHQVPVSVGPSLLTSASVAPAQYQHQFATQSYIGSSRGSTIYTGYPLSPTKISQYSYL
Sequence of CAMKK2 (human) (Q96RR4 whole entry, looked up): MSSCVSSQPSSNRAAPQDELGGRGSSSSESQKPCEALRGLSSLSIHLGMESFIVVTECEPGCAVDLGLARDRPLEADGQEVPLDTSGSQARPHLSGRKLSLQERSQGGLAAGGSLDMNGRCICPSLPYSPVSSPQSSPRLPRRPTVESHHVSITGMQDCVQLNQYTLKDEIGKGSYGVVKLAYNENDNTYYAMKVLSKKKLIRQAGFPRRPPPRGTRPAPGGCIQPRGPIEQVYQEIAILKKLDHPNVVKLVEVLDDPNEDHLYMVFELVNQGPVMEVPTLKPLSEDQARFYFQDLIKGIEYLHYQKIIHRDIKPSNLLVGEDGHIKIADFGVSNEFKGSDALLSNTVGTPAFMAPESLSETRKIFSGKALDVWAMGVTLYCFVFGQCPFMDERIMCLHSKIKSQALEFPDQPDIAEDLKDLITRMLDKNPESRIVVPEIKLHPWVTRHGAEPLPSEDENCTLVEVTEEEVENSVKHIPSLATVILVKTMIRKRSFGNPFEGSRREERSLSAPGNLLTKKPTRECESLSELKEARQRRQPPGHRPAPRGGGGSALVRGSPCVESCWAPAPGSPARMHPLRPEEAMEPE
Sequence of PLK1 (human) (P53350 whole entry, looked up): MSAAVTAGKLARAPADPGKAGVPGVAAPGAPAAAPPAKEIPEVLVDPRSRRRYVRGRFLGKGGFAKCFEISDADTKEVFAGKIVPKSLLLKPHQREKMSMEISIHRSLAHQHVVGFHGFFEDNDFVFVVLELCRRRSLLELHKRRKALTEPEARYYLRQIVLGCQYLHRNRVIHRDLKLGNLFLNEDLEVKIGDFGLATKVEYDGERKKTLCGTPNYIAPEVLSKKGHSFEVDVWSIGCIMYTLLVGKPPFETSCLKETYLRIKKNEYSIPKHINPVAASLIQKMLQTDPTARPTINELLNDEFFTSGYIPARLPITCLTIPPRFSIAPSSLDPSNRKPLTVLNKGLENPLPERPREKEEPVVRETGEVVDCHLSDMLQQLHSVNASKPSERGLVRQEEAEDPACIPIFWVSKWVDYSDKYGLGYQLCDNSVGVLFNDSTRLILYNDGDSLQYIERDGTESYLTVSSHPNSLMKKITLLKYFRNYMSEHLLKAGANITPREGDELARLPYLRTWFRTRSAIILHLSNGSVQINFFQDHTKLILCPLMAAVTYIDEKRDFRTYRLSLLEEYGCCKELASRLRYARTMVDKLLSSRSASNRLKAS
Sequence of MAP3K7 TAB1 (human) (O43318 whole entry, looked up): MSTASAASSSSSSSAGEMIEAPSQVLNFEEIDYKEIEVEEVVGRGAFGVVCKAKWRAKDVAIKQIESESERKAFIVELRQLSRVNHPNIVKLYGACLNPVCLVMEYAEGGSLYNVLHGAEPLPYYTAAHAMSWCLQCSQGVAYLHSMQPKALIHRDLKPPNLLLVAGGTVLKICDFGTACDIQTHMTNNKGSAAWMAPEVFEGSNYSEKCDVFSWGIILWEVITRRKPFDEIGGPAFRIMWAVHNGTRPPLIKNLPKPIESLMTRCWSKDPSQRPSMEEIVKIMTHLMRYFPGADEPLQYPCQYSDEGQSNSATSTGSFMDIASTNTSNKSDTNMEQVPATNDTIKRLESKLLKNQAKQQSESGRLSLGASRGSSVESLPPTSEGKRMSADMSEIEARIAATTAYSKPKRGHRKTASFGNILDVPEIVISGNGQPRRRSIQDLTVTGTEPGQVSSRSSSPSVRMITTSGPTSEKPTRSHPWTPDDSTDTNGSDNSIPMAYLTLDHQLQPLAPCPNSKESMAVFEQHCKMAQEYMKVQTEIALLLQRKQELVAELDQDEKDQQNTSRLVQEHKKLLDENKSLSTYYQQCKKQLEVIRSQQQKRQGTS
Sequence of MAP3K7 TAB1 (human) (Q15750 whole entry, looked up): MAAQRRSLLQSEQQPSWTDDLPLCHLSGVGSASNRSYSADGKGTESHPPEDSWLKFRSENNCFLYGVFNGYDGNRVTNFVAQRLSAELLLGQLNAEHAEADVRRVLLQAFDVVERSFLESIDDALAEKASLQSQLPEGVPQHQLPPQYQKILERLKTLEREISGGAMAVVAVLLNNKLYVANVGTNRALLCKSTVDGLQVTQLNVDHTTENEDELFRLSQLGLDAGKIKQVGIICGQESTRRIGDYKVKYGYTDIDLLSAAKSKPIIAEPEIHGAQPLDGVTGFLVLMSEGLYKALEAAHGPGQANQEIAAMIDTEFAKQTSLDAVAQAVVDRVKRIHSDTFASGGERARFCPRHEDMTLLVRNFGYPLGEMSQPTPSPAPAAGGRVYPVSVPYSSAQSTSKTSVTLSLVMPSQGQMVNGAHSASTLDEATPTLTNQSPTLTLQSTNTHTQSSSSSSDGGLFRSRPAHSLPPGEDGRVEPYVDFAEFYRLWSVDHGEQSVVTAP

residual activity (DAPK1 (human); compound 1.0 µM): 95% | residual activity (MAP3K9 (human); compound 1.0 µM): 100% | residual activity (MAP3K9 (human); compound 10.0 µM): 24% | residual activity (GSK3B (human); compound 1.0 µM): 94% | residual activity (GSK3B (human); compound 10.0 µM): 19% | residual activity (BRSK2 (human); compound 1.0 µM): 71% | residual activity (BRSK2 (human); compound 10.0 µM): 13% | residual activity (ROCK2 (rat); compound 1.0 µM): 95% | residual activity (ROCK2 (rat); compound 10.0 µM): 56% | residual activity (CSK (human); compound 1.0 µM): 125% | residual activity (CSK (human); compound 10.0 µM): 74% | residual activity (MAP3K1 (human); compound 1.0 µM): 67% | residual activity (MAP3K1 (human); compound 10.0 µM): 74% | residual activity (HIPK3 (human); compound 1.0 µM): 88% | residual activity (HIPK3 (human); compound 10.0 µM): 55% | residual activity (HIPK2 (human); compound 1.0 µM): 62% | residual activity (HIPK2 (human); compound 10.0 µM): 19% | residual activity (LCK (mouse); compound 1.0 µM): 102% | residual activity (LCK (mouse); compound 10.0 µM): 95% | residual activity (EPHB1 (human); compound 1.0 µM): 85% | residual activity (PLK1 (human); compound 1.0 µM): 107% | residual activity (PLK1 (human); compound 10.0 µM): 23% | residual activity (MAP3K5 (human); compound 1.0 µM): 118% | residual activity (PRKAA1 or PRKAA2 (rat); compound 1.0 µM): 73% | residual activity (PRKAA1 or PRKAA2 (rat); compound 10.0 µM): 9% | residual activity (SRC (human); compound 1.0 µM): 38% | residual activity (SRC (human); compound 10.0 µM): 25% | residual activity (MAP3K7 TAB1 (human); compound 1.0 µM): 94% | residual activity (MAP3K7 TAB1 (human); compound 10.0 µM): 5% | residual activity (EPHA4 (human); compound 1.0 µM): 117% | residual activity (EPHA4 (human); compound 10.0 µM): 74% | residual activity (HIPK1 (human); compound 1.0 µM): 93% | residual activity (HIPK1 (human); compound 10.0 µM): 11% | residual activity (YES1 (human); compound 1.0 µM): 42% | residual activity (YES1 (human); compound 10.0 µM): 9% | residual activity (MAPK13 (human); compound 1.0 µM): 96% | residual activity (MAPK13 (human); compound 10.0 µM): 97% | residual activity (CLK2 (human); compound 1.0 µM): 58% | residual activity (PRKCZ (human); compound 1.0 µM): 62% | residual activity (PRKCZ (human); compound 10.0 µM): 20% | residual activity (SYK (human); compound 1.0 µM): 89% | residual activity (SYK (human); compound 10.0 µM): 93% | residual activity (MARK4 (human); compound 1.0 µM): 34% | residual activity (MARK4 (human); compound 10.0 µM): 20% | residual activity (MAPK1 (human); compound 1.0 µM): 107% | residual activity (MAPK1 (human); compound 10.0 µM): 105% | residual activity (INSR (human); compound 1.0 µM): 86% | residual activity (INSR (human); compound 10.0 µM): 62% | residual activity ([1]; compound 1.0 µM): 21% | residual activity ([1]; compound 10.0 µM): 1% | residual activity (EPHB3 (human); compound 1.0 µM): 93% | residual activity (EPHB3 (human); compound 10.0 µM): 61% | residual activity (PKN2 (human); compound 1.0 µM): 106% | residual activity (PKN2 (human); compound 10.0 µM): 102% | residual activity (RPS6KA5 KD1 KD2 (human); compound 1.0 µM): 88% | residual activity (RPS6KA5 KD1 KD2 (human); compound 10.0 µM): 38% | residual activity (IGF1R (human); compound 1.0 µM): 96% | residual activity (IGF1R (human); compound 10.0 µM): 43% | residual activity (MAPK11 (human); compound 1.0 µM): 101% | residual activity (MAPK11 (human); compound 10.0 µM): 90% | residual activity (CAMKK2 (human); compound 1.0 µM): 72% | residual activity (CAMKK2 (human); compound 10.0 µM): 61% | residual activity (PAK7 (human); compound 1.0 µM): 67% | residual activity (PAK7 (human); compound 10.0 µM): 55% | residual activity (EPHB4 (human); compound 1.0 µM): 90% | residual activity (EPHB4 (human); compound 10.0 µM): 56% | residual activity (PAK6 (human); compound 1.0 µM): 58% | residual activity (PAK6 (human); compound 10.0 µM): 60%
SMILES: O=c1c(O)c(-c2ccc(O)c(O)c2)oc2cc(O)c(O)c(O)c12

residual activity (DAPK1 (human); compound 10.0 µM): 62% | residual activity (MAP3K9 (human); compound 10.0 µM): 44% | residual activity (GSK3B (human); compound 1.0 µM): 100% | residual activity (GSK3B (human); compound 10.0 µM): 80% | residual activity (GSK3B (human); compound 50.0 µM): 37% | residual activity (BRSK2 (human); compound 1.0 µM): 54% | residual activity (BRSK2 (human); compound 10.0 µM): 50% | residual activity (BRSK2 (human); compound 50.0 µM): 13% | residual activity (ROCK2 (rat); compound 1.0 µM): 125% | residual activity (ROCK2 (rat); compound 10.0 µM): 83% | residual activity (ROCK2 (rat); compound 50.0 µM): 21% | residual activity (CSK (human); compound 1.0 µM): 102% | residual activity (CSK (human); compound 10.0 µM): 87% | residual activity (CSK (human); compound 50.0 µM): 68% | residual activity (MAP3K1 (human); compound 10.0 µM): 90% | residual activity (HIPK3 (human); compound 1.0 µM): 93% | residual activity (HIPK3 (human); compound 10.0 µM): 41% | residual activity (HIPK3 (human); compound 50.0 µM): 12% | residual activity (HIPK2 (human); compound 1.0 µM): 60% | residual activity (HIPK2 (human); compound 10.0 µM): 30% | residual activity (HIPK2 (human); compound 50.0 µM): 3% | residual activity (LCK (mouse); compound 1.0 µM): 115% | residual activity (LCK (mouse); compound 10.0 µM): 97% | residual activity (LCK (mouse); compound 50.0 µM): 59% | residual activity (EPHB1 (human); compound 10.0 µM): 97% | residual activity (PLK1 (human); compound 1.0 µM): 90% | residual activity (PLK1 (human); compound 10.0 µM): 87% | residual activity (PLK1 (human); compound 50.0 µM): 78% | residual activity (MAP3K5 (human); compound 10.0 µM): 77% | residual activity (PRKAA1 or PRKAA2 (rat); compound 1.0 µM): 103% | residual activity (PRKAA1 or PRKAA2 (rat); compound 10.0 µM): 73% | residual activity (PRKAA1 or PRKAA2 (rat); compound 50.0 µM): 16% | residual activity (SRC (human); compound 1.0 µM): 108% | residual activity (SRC (human); compound 10.0 µM): 81% | residual activity (SRC (human); compound 50.0 µM): 47% | residual activity (MAP3K7 TAB1 (human); compound 10.0 µM): 83% | residual activity (EPHA4 (human); compound 10.0 µM): 107% | residual activity (HIPK1 (human); compound 10.0 µM): 48% | residual activity (YES1 (human); compound 10.0 µM): 77% | residual activity (MAPK13 (human); compound 1.0 µM): 95% | residual activity (MAPK13 (human); compound 10.0 µM): 91% | residual activity (MAPK13 (human); compound 50.0 µM): 72% | residual activity (CLK2 (human); compound 10.0 µM): 55% | residual activity (PRKCZ (human); compound 1.0 µM): 128% | residual activity (PRKCZ (human); compound 10.0 µM): 105% | residual activity (PRKCZ (human); compound 50.0 µM): 99% | residual activity (SYK (human); compound 10.0 µM): 92% | residual activity (MARK4 (human); compound 10.0 µM): 99% | residual activity (MAPK1 (human); compound 1.0 µM): 102% | residual activity (MAPK1 (human); compound 10.0 µM): 79% | residual activity (MAPK1 (human); compound 50.0 µM): 100% | residual activity (INSR (human); compound 10.0 µM): 50% | residual activity ([1]; compound 1.0 µM): 108% | residual activity ([1]; compound 10.0 µM): 67% | residual activity ([1]; compound 50.0 µM): 76% | residual activity (EPHB3 (human); compound 10.0 µM): 88% | residual activity (PKN2 (human); compound 1.0 µM): 95% | residual activity (PKN2 (human); compound 10.0 µM): 70% | residual activity (PKN2 (human); compound 50.0 µM): 21% | residual activity (RPS6KA5 KD1 KD2 (human); compound 1.0 µM): 80% | residual activity (RPS6KA5 KD1 KD2 (human); compound 10.0 µM): 65% | residual activity (RPS6KA5 KD1 KD2 (human); compound 50.0 µM): 16% | residual activity (IGF1R (human); compound 10.0 µM): 59% | residual activity (MAPK11 (human); compound 1.0 µM): 112% | residual activity (MAPK11 (human); compound 10.0 µM): 93% | residual activity (MAPK11 (human); compound 50.0 µM): 108% | residual activity (CAMKK2 (human); compound 1.0 µM): 107% | residual activity (CAMKK2 (human); compound 10.0 µM): 74% | residual activity (CAMKK2 (human); compound 50.0 µM): 28% | residual activity (PAK7 (human); compound 1.0 µM): 102% | residual activity (PAK7 (human); compound 10.0 µM): 83% | residual activity (PAK7 (human); compound 50.0 µM): 75% | residual activity (EPHB4 (human); compound 10.0 µM): 99% | residual activity (PAK6 (human); compound 1.0 µM): 108% | residual activity (PAK6 (human); compound 10.0 µM): 106% | residual activity (PAK6 (human); compound 50.0 µM): 100%
SMILES: Oc1ccc(/C=C/c2cc(O)cc(O)c2)cc1
